According to PubChem BioAssay (NCI):
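Following 48 hours of exposure in 96-well plates, responses at five concentrations were used to interpolate endpoints linearly. The concentration for 50% growth inhibition is given as GI50. The concentration for full growth arrest is given as TGI.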

Legend:
Test in all cases: inhibition of tumour cell growth, NCI panel, 48 h
SNB-78 CNS = system: SNB-78 CNS
IGROV1 ovarian = system: IGROV1 ovarian
SN12C renal = system: SN12C renal
786-0 renal = system: 786-0 renal
XF 498 CNS = system: XF 498 CNS
HOP-92 NSCLC = system: HOP-92 NSCLC
SF-295 CNS = system: SF-295 CNS
SK-MEL-5 melanoma = system: SK-MEL-5 melanoma
MDA-MB-435 = system: MDA-MB-435
T-47D breast = system: T-47D breast
HS 578T breast = system: HS 578T breast

Row | Structure (SMILES) | TGI (SNB-78 CNS) | TGI (IGROV1 ovarian) | TGI (SN12C renal) | TGI (786-0 renal) | TGI (XF 498 CNS) | TGI (HOP-92 NSCLC) | TGI (SF-295 CNS) | TGI (SK-MEL-5 melanoma) | TGI (MDA-MB-435) | TGI (T-47D breast) | TGI (HS 578T breast) | GI50 (SNB-78 CNS) | GI50 (SN12C renal)
1 | Cc1cc2c(=O)c3ccc(Cl)cc3[nH]c2c(C(N)=O)c1C | > 100 µM | > 100 µM | > 100 µM | > 100 µM | > 100 µM | > 100 µM | > 100 µM | > 100 µM |  |  |  |  | 
2 | O=C1c2ccncc2C(=O)c2c(O)ccc(O)c21 |  | 25.9 µM | 16.1 µM | 19.2 µM | 15.2 µM | 32.4 µM | 25.1 µM |  |  |  |  |  | 
3 | O=C1CC(c2ccsc2)n2cccc21 (stereo not drawn) |  | > 100 µM | > 100 µM | > 100 µM |  | > 100 µM | > 100 µM | > 100 µM | > 100 µM | > 100 µM | > 100 µM |  | 
4 | O=C1Nc2cccc(Cl)c2/C1=C\c1c(-c2ccccc2)nc2n1CCS2 |  | 37.5 µM | 31.7 µM | 36.2 µM |  | 56.9 µM | > 100 µM | 51.6 µM | 36.5 µM | 48.9 µM | 61.4 µM |  | 
5 | Cc1ccc(N2C(=O)C3CSCN3C2=O)cc1 (stereo not drawn) | > 100 µM | > 100 µM | > 100 µM |  | > 100 µM | > 100 µM | > 100 µM | > 100 µM |  |  |  | > 100 µM | 
6 | O=c1cc(N2CCOCC2)n2c(ccc3ccccc32)n1 |  | > 100 µM | > 100 µM | > 100 µM |  | > 100 µM | > 100 µM | > 100 µM | > 100 µM | > 100 µM | > 100 µM |  | 
7 | CCC1=C(C[C@H]2NCCc3cc(OC)c(OC)cc32)C[C@H]2c3cc(OC)c(OC)cc3CCN2C1 | 1.32 µM | 0.444 µM | 0.193 µM | 0.107 µM |  | 0.095 µM | 0.189 µM | 0.0551 µM |  |  |  |  | 
8 | CSc1nnc(SCc2nn3c(=O)cc(C)nc3s2)s1 |  | > 100 µM | > 100 µM | > 100 µM |  | > 100 µM | > 100 µM | > 100 µM | > 100 µM | > 100 µM | > 100 µM |  | 
9 | O=C1C=CC(=O)c2c(O)c(N3CCOCC3)c(Cl)c(O)c21 |  | 1.21 µM | 0.425 µM | 0.84 µM |  | 0.675 µM | 3.21 µM | 0.822 µM | 0.406 µM | 4.36 µM | 1.7 µM |  | 
10 | CCOC(=O)C1CCC(=O)N1C(=O)c1cccc(Cl)c1 (stereo not drawn) |  | > 100 µM | > 100 µM | > 100 µM |  | > 100 µM | > 100 µM | > 100 µM | > 100 µM | > 100 µM | > 100 µM |  | 
11 | CC/C=C/c1cc2c(cc1O)CCC1C2CC[C@@]2(C)C1CC[C@@H]2O (stereo partly drawn) |  | 17.5 µM | 18.7 µM | 13.8 µM |  | 26 µM | 1.48 µM | 11.3 µM | 1.12 µM | 15 µM | 6.11 µM |  | 5.13 µM
12 | Oc1ccc(Cl)cc1-c1cc(-c2ccccc2)nc(=S)[nH]1 |  | > 100 µM | > 100 µM | 64 µM |  | 47.6 µM | > 100 µM | > 100 µM | > 100 µM | > 100 µM | > 100 µM |  | 
13 | C=C(CN(CC)CC)C1(c2ccccc2)CC2(CCCC2)C(=O)O1 (stereo not drawn) |  | > 100 µM | > 100 µM | > 100 µM |  | 83.3 µM | > 100 µM | > 100 µM | > 100 µM | > 100 µM | > 100 µM |  | 
14 | C=C(Br)C[N+]12CN3CN(CN(C3)C1)C2 |  | > 100 µM | > 100 µM | > 100 µM |  | > 100 µM | > 100 µM | > 100 µM | > 100 µM | > 100 µM | > 100 µM |  | 
15 | Cc1nc2ccc(Cl)cc2c2c1CCO2 |  | > 100 µM | > 100 µM | > 100 µM |  | > 100 µM | > 100 µM | > 100 µM | > 100 µM | > 100 µM | > 100 µM |  | 
16 | Oc1cccc2c(Br)ccnc12 |  | 9.41 µM | 21.7 µM | > 100 µM |  | 23 µM | > 100 µM | 14.2 µM | 34.3 µM | > 51.5 µM | 50.5 µM |  | 
17 | [N-]=[N+]=Nc1nc2ccccc2c(N=[N+]=[N-])c1Cl |  | > 100 µM | > 100 µM | > 100 µM |  | > 100 µM | > 100 µM | > 100 µM | > 100 µM | > 100 µM | > 100 µM |  | 
18 | Clc1ccc(-c2nn3c(COc4cccc(OCc5nnc6sc(-c7ccc(Cl)cc7)nn56)c4)nnc3s2)cc1 |  | > 100 µM | 29.1 µM | 59.9 µM |  | > 100 µM | > 100 µM | 50.7 µM | 41.7 µM | 57 µM | > 100 µM |  | 
19 | COc1cccc(NC(=O)CC(=O)n2nc(-c3ccccc3)c(N=Nc3ccc(Cl)cc3)c2-c2ccccc2)c1 |  | > 96.4 µM | > 100 µM | 64.4 µM |  | > 75 µM | > 88.8 µM | 53.8 µM | > 100 µM | > 100 µM | > 82.3 µM |  | 
20 | NC1CCCCC1NCCNC1CCCCC1N (stereo not drawn) |  | > 100 µM | > 100 µM | > 100 µM |  | > 100 µM | > 100 µM | > 100 µM | > 100 µM | > 100 µM | > 100 µM |  | 
21 | COC(=O)[C@@H](NS(=O)(=O)CC12CCC(CC1)C2(C)C)C(C)(C)C |  | > 100 µM | > 100 µM | > 100 µM |  | > 100 µM | > 100 µM | > 100 µM | > 100 µM | > 100 µM | > 100 µM |  | 
22 | C=CC(C)(C)/C=C/c1ccc(O)cc1 |  | > 100 µM | > 100 µM | > 100 µM |  | > 100 µM | > 100 µM | > 100 µM | > 100 µM | 95 µM | > 100 µM |  | 
23 | Nc1ccc2c(=O)cc(-c3ccc(Br)s3)[nH]c2n1 |  | > 100 µM | > 100 µM | > 100 µM |  | > 100 µM | > 31.9 µM | 11.3 µM | 1.39 µM | > 100 µM | > 100 µM |  | 
24 | O=Nc1c(-c2c(O)[nH]c3ccc(I)cc23)[nH]c2ccccc12 |  | 8.51 µM | 17.9 µM | > 35.1 µM |  | > 27.7 µM | > 71.7 µM | > 100 µM | > 100 µM | > 69.8 µM | > 29.8 µM |  | 
25 | O=C1C=CC2(O[C@H](C3CCCCC3)[C@@H](C3CCCCC3)O2)C(SC(=O)c2ccccc2)C1 (stereo partly drawn) |  | 9.1 µM | 6.58 µM | 5.09 µM |  | 16.8 µM | 14.5 µM | 5.53 µM | 5.29 µM | 1.94 µM | 10.9 µM |  | 
26 | CC(=O)CC(=O)N1CCSC1=S |  | > 10 µM | > 10 µM | > 10 µM |  | > 10 µM | > 10 µM | > 10 µM | > 10 µM | > 10 µM | > 10 µM |  | 
